Assays:
Assay in all cases: Post-emergence glasshouse spray test, visual percentage phytotoxicity after 13 days
Type in all cases: in vivo
[1] = tested on: Digitaria sanguinalis (DIGSA); settings: for DIGSA percentage phytotoxicity: B1; for Observed phytotoxicity DIGSA: B2.4.2
Description: (§1) Seeds of Setaria faberi (SETFA), Echinochloa crus-galli (ECHCG), Digitaria sanguinalis (DIGSA), Lolium perenne (LOLPE), Alopecurus myosuroides (ALOMY), Chenopodium album (CHEAL), Ipomoea hederacea (IPOHE), Stellaria media (STEME), Abutilon threophrasti (ABUTH), Amaranthus retroflexus (AMARE) were sown in standard sterilised soil in pots. After cultivation for 8 days under controlled conditions in a glasshouse (at 24/19° C., day/night; 16 hours light; no humidity control), the plants were sprayed at 500 l/Ha with an aqueous spray solution derived from the formulation of the technical active ingredients in a small amount of acetone and a solvent and emulsifier mixture referred to as IF50 (11.12% Emulsogen EL360™+44.44% N-methylpyrrolidone+44.44% Dowanol DPM glycol ether), to create a 50 g/l solution which was then diluted using 0.2% Genapol XO80 (CAS Number: 9043-30-5) as diluent to give the desired final dose of test compound.
(§2) Where active ingredients were applied as mixtures, aqueous spray solutions were prepared as above, containing both active ingredients.
(§3) The test plants were then grown under controlled conditions in a glasshouse (at 24/18° C., day/night; 15 hours light; 50% humidity) and watered twice daily. After 13 days, the test was evaluated visually for percentage phytotoxicity to the plants (where 100=total damage to plant; 0=no damage to plant; and NC=not captured) when compared to control untreated plants. Two to four replicates were applied for each treatment in a randomised block test design.
(§4) 22., E=X+Y−(X*Y/100), where
(§5) X=average percent phytotoxicity of herbicide A when applied at a certain rate Y=average percent phytotoxicity using herbicide B when applied at a certain rate E=the expected effect of the mixture of herbicides A and B as calculated from the Colby formula.

[2] = tested on: Abutilon threophrasti (ABUTH); settings: for ABUTH percentage phytotoxicity: B1
Description: as §1, §2, §3, §4, §5

Lolium perenne (LOLPE) = settings: for LOLPE percentage phytotoxicity: B1; for Observed phytotoxicity LOLPE: B2.4.3
Description: as §1, §2, §3, §4, §5

[3] = tested on: Amaranthus retroflexus (AMARE); settings: for AMARE percentage phytotoxicity: B1
Description: as §1, §2, §3, §4, §5

[4] = tested on: Ipomoea hederacea (IPOHE); settings: for IPOHE percentage phytotoxicity: B1; for Observed phytotoxicity IPOHE: B2.4.5
Description: as §1, §2, §3, §4, §5

Setaria faberi (SETFA) = settings: for SETFA percentage phytotoxicity: B1
Description: as §1, §2, §3, §4, §5

[5] = tested on: Chenopodium album (CHEAL); settings: for CHEAL percentage phytotoxicity: B1
Description: as §1, §2, §3, §4, §5

Stellaria media (STEME) = settings: B1
Description: as §1, §2, §3, §4, §5

[6] = tested on: Alopecurus myosuroides (ALOMY); settings: for ALOMY percentage phytotoxicity: B1
Description: as §1, §2, §3, §4, §5

CS(=O)(=O)c1ccc(C(=O)C2C(=O)CCCC2=O)c(Cl)c1OCCC1OCCO1 [B-II]
DIGSA percentage phytotoxicity ([1]; 0.625 g/ha post-emergence): 0%
DIGSA percentage phytotoxicity ([1]; 1.25 g/ha post-emergence): 0%
DIGSA percentage phytotoxicity ([1]; 2.5 g/ha post-emergence): 0%
DIGSA percentage phytotoxicity ([1]; 5 g/ha post-emergence): 0%
DIGSA percentage phytotoxicity ([1]; 10 g/ha post-emergence): 0%
Observed phytotoxicity DIGSA ([1]; 2.5 g/ha post-emergence): 0%
Observed phytotoxicity DIGSA ([1]; 5 g/ha post-emergence): 0%
Observed phytotoxicity DIGSA ([1]; 10 g/ha post-emergence): 0%
ABUTH percentage phytotoxicity ([2]; 0.625 g/ha post-emergence): 3%
ABUTH percentage phytotoxicity ([2]; 1.25 g/ha post-emergence): 38%
ABUTH percentage phytotoxicity ([2]; 2.5 g/ha post-emergence): 50%
ABUTH percentage phytotoxicity ([2]; 5 g/ha post-emergence): 58%
ABUTH percentage phytotoxicity ([2]; 10 g/ha post-emergence): 63%
Observed phytotoxicity ABUTH ([2]; B2.4.6, 0.625 g/ha post-emergence): 3%
LOLPE percentage phytotoxicity (Lolium perenne (LOLPE); 0.625 g/ha post-emergence): 0%
LOLPE percentage phytotoxicity (Lolium perenne (LOLPE); 1.25 g/ha post-emergence): 0%
LOLPE percentage phytotoxicity (Lolium perenne (LOLPE); 2.5 g/ha post-emergence): 0%
LOLPE percentage phytotoxicity (Lolium perenne (LOLPE); 5 g/ha post-emergence): 0%
LOLPE percentage phytotoxicity (Lolium perenne (LOLPE); 10 g/ha post-emergence): 0%
Observed phytotoxicity LOLPE (Lolium perenne (LOLPE); 5 g/ha post-emergence): 0%
Observed phytotoxicity LOLPE (Lolium perenne (LOLPE); 10 g/ha post-emergence): 0%
AMARE percentage phytotoxicity ([3]; 0.625 g/ha post-emergence): 0%
AMARE percentage phytotoxicity ([3]; 1.25 g/ha post-emergence): 5%
AMARE percentage phytotoxicity ([3]; 2.5 g/ha post-emergence): 10%
AMARE percentage phytotoxicity ([3]; 5 g/ha post-emergence): 28%
AMARE percentage phytotoxicity ([3]; 10 g/ha post-emergence): 48%
Observed phytotoxicity AMARE ([3]; B2.4.8, 2.5 g/ha post-emergence): 10%
IPOHE percentage phytotoxicity ([4]; 0.625 g/ha post-emergence): 3%
IPOHE percentage phytotoxicity ([4]; 1.25 g/ha post-emergence): 10%
IPOHE percentage phytotoxicity ([4]; 2.5 g/ha post-emergence): 23%
IPOHE percentage phytotoxicity ([4]; 5 g/ha post-emergence): 38%
IPOHE percentage phytotoxicity ([4]; 10 g/ha post-emergence): 48%
Observed phytotoxicity IPOHE ([4]; 2.5 g/ha post-emergence): 23%
Observed phytotoxicity IPOHE ([4]; 10 g/ha post-emergence): 48%
SETFA percentage phytotoxicity (Setaria faberi (SETFA); 0.625 g/ha post-emergence): 0%
SETFA percentage phytotoxicity (Setaria faberi (SETFA); 1.25 g/ha post-emergence): 0%
SETFA percentage phytotoxicity (Setaria faberi (SETFA); 2.5 g/ha post-emergence): 0%
SETFA percentage phytotoxicity (Setaria faberi (SETFA); 5 g/ha post-emergence): 0%
SETFA percentage phytotoxicity (Setaria faberi (SETFA); 10 g/ha post-emergence): 3%
Observed phytotoxicity SETFA (Setaria faberi (SETFA); B2.4.1, 5 g/ha post-emergence): 0%
CHEAL percentage phytotoxicity ([5]; 0.625 g/ha post-emergence): 0%
CHEAL percentage phytotoxicity ([5]; 1.25 g/ha post-emergence): 0%
CHEAL percentage phytotoxicity ([5]; 2.5 g/ha post-emergence): 38%
CHEAL percentage phytotoxicity ([5]; 5 g/ha post-emergence): 53%
CHEAL percentage phytotoxicity ([5]; 10 g/ha post-emergence): 65%
Observed phytotoxicity CHEAL ([5]; B2.4.7, 1.25 g/ha post-emergence): 0%
STEME percentage phytotoxicity (Stellaria media (STEME); 0.625 g/ha post-emergence): 0%
STEME percentage phytotoxicity (Stellaria media (STEME); 1.25 g/ha post-emergence): 13%
STEME percentage phytotoxicity (Stellaria media (STEME); 2.5 g/ha post-emergence): 45%
STEME percentage phytotoxicity (Stellaria media (STEME); 5 g/ha post-emergence): 35%
STEME percentage phytotoxicity (Stellaria media (STEME); 10 g/ha post-emergence): 38%
ALOMY percentage phytotoxicity ([6]; 0.625 g/ha post-emergence): 0%
ALOMY percentage phytotoxicity ([6]; 1.25 g/ha post-emergence): 0%
ALOMY percentage phytotoxicity ([6]; 2.5 g/ha post-emergence): 0%
ALOMY percentage phytotoxicity ([6]; 5 g/ha post-emergence): 0%
ALOMY percentage phytotoxicity ([6]; 10 g/ha post-emergence): 0%
Observed phytotoxicity ALOMY ([6]; B2.4.4, 10 g/ha post-emergence): 0%

Reference: patent publication US20230389548A1, “MIXTURES OF PYRIMIDINES AS HERBICIDAL COMPOSITIONS” (SYNGENTA CROP PROTECTION AG, priority 2020, published 2023)
